# Experimental data: PubChem BioAssay AID2060624 (Molecular Pharmacology Branch, DTP, NCI, 2025)
# Test system: 217524-143-R1-J4-PDC spheroids with HUVEC/MSC, viability
# Experiment: Anticancer human tumor 217524-143-R1-J4-PDC patient-derived pancreatic carcinoma cell line growth inhibition [CLK]
# Conditions: for IC50: curve of first compound; for viability, T/C: stronger effect = lower value
# Method in brief: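 Multi-cell-type spheroids combined patient-derived tumor cells with HUVEC endothelial cells and human mesenchymal stem cells. Paired agents were dosed in half-log steps down from about clinical Cmax, or from 10 microM where Cmax was unknown.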
# [1] = second compound 0.0316 µM, first compound 0.0316 µM
# [2] = second compound 0.0316 µM, first compound 0.1 µM
# [3] = second compound 0.0316 µM, first compound 0.316 µM
# [4] = second compound 0.0316 µM, first compound 1 µM
# [5] = second compound 0.0316 µM, first compound 3.16 µM
# [6] = second compound 0.0316 µM, first compound 10 µM
# [7] = second compound 0.1 µM, first compound 0.0316 µM
# [8] = second compound 0.1 µM, first compound 0.1 µM
# [9] = second compound 0.1 µM, first compound 0.316 µM
# [10] = second compound 0.1 µM, first compound 1 µM
# [11] = second compound 0.1 µM, first compound 3.16 µM
# [12] = second compound 0.1 µM, first compound 10 µM
# [13] = second compound 0.316 µM, first compound 0.0316 µM
# [14] = second compound 0.316 µM, first compound 0.1 µM
# [15] = second compound 0.316 µM, first compound 0.316 µM
# [16] = second compound 0.316 µM, first compound 1 µM
# [17] = second compound 0.316 µM, first compound 3.16 µM
# [18] = second compound 0.316 µM, first compound 10 µM
# [19] = second compound 1 µM, first compound 0.0316 µM
# [20] = second compound 1 µM, first compound 0.1 µM
# [21] = second compound 1 µM, first compound 0.316 µM
# [22] = second compound 1 µM, first compound 1 µM
# [23] = second compound 1 µM, first compound 3.16 µM
# [24] = second compound 1 µM, first compound 10 µM
# [25] = second compound 3.16 µM, first compound 0.0316 µM
# [26] = second compound 3.16 µM, first compound 0.1 µM
# [27] = second compound 3.16 µM, first compound 0.316 µM
# [28] = second compound 3.16 µM, first compound 1 µM
# [29] = second compound 3.16 µM, first compound 3.16 µM
# [30] = second compound 3.16 µM, first compound 10 µM
# [31] = second compound 10 µM, first compound 0.0316 µM
# [32] = second compound 10 µM, first compound 0.1 µM
# [33] = second compound 10 µM, first compound 0.316 µM
# [34] = second compound 10 µM, first compound 1 µM
# [35] = second compound 10 µM, first compound 3.16 µM
# [36] = second compound 10 µM, first compound 10 µM
# 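Also: spheroids exposed to agents for seven days before reading.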
# 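For viability, T/C in this document: 100% = DMSO vehicle control viability.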
compound,measurement,setting,value
C#Cc1c(F)ccc2cc(O)cc(-c3ncc4c(N5CC6CCC(C5)N6)nc(OCC56CCCN5CC(F)C6)nc4c3F)c12 (stereo unspecified) + CNC(=O)c1ccc(Nc2nc(OC3CCCC3)c3c(-c4ccc5nc(C)oc5c4)c[nH]c3n2)c(OC)c1,IC50,second compound 0.0316 µM,> 10000 nM
same,IC50,second compound 0.1 µM,< 31.6 nM
same,IC50,second compound 0.316 µM,< 31.6 nM
same,IC50,second compound 1 µM,< 31.6 nM
same,IC50,second compound 3.16 µM,< 31.6 nM
same,IC50,second compound 10 µM,< 31.6 nM
same,"viability, T/C",[1],84.3%
same,"viability, T/C",[2],98.2%
same,"viability, T/C",[3],90.8%
same,"viability, T/C",[4],101%
same,"viability, T/C",[5],89.4%
same,"viability, T/C",[6],69%
same,"viability, T/C",[7],47.5%
same,"viability, T/C",[8],39.2%
same,"viability, T/C",[9],53.6%
same,"viability, T/C",[10],42.4%
same,"viability, T/C",[11],44.5%
same,"viability, T/C",[12],30.8%
same,"viability, T/C",[13],38.5%
same,"viability, T/C",[14],50.3%
same,"viability, T/C",[15],38.2%
same,"viability, T/C",[16],40.9%
same,"viability, T/C",[17],38.7%
same,"viability, T/C",[18],24.3%
same,"viability, T/C",[19],33.1%
same,"viability, T/C",[20],30%
same,"viability, T/C",[21],26.1%
same,"viability, T/C",[22],35.5%
same,"viability, T/C",[23],24.5%
same,"viability, T/C",[24],18.9%
same,"viability, T/C",[25],29.1%
same,"viability, T/C",[26],29.5%
same,"viability, T/C",[27],32.6%
same,"viability, T/C",[28],26.7%
same,"viability, T/C",[29],26.2%
same,"viability, T/C",[30],19.4%
same,"viability, T/C",[31],26.3%
same,"viability, T/C",[32],24.2%
same,"viability, T/C",[33],27.8%
same,"viability, T/C",[34],23.4%
same,"viability, T/C",[35],24.9%
same,"viability, T/C",[36],19.7%
C=C(F)C(=O)N1CCN(c2nc(OCC3CCCN3C)nc3c2CCN(c2cccc4cccc(Cl)c24)C3)CC1CC#N (stereo unspecified) + CNC(=O)c1ccc(Nc2nc(OC3CCCC3)c3c(-c4ccc5nc(C)oc5c4)c[nH]c3n2)c(OC)c1,IC50,second compound 0.0316 µM,5260 nM
same,IC50,second compound 0.1 µM,< 31.6 nM
same,IC50,second compound 0.316 µM,< 31.6 nM
same,IC50,second compound 1 µM,< 31.6 nM
same,IC50,second compound 3.16 µM,< 31.6 nM
same,IC50,second compound 10 µM,< 31.6 nM
same,"viability, T/C",[1],80.1%
same,"viability, T/C",[2],77.7%
same,"viability, T/C",[3],97.1%
same,"viability, T/C",[4],85.7%
same,"viability, T/C",[5],104%
same,"viability, T/C",[6],0.48%
same,"viability, T/C",[7],46.5%
same,"viability, T/C",[8],43%
same,"viability, T/C",[9],34.7%
same,"viability, T/C",[10],45.3%
same,"viability, T/C",[11],37.9%
same,"viability, T/C",[12],0.82%
same,"viability, T/C",[13],39.3%
same,"viability, T/C",[14],42.9%
same,"viability, T/C",[15],41.9%
same,"viability, T/C",[16],28.2%
same,"viability, T/C",[17],28.2%
same,"viability, T/C",[18],1.22%
same,"viability, T/C",[19],32.5%
same,"viability, T/C",[20],33.8%
same,"viability, T/C",[21],30.9%
same,"viability, T/C",[22],23.4%
same,"viability, T/C",[23],21.8%
same,"viability, T/C",[24],0.35%
same,"viability, T/C",[25],27.8%
same,"viability, T/C",[26],40.8%
same,"viability, T/C",[27],25.6%
same,"viability, T/C",[28],23.8%
same,"viability, T/C",[29],19.6%
same,"viability, T/C",[30],0.34%
same,"viability, T/C",[31],26.5%
same,"viability, T/C",[32],22.6%
same,"viability, T/C",[33],27.6%
same,"viability, T/C",[34],25.4%
same,"viability, T/C",[35],18.5%
same,"viability, T/C",[36],0.42%
CC(CO)NC(=O)c1cc(-c2ccc(Cl)cc2)nn(-c2cnn(C)c2)c1=O (stereo unspecified) + CNC(=O)c1ccc(Nc2nc(OC3CCCC3)c3c(-c4ccc5nc(C)oc5c4)c[nH]c3n2)c(OC)c1,IC50,second compound 0.0316 µM,> 10000 nM
same,IC50,second compound 0.1 µM,< 31.6 nM
same,IC50,second compound 0.316 µM,< 31.6 nM
same,IC50,second compound 1 µM,< 31.6 nM
same,IC50,second compound 3.16 µM,< 31.6 nM
same,IC50,second compound 10 µM,< 31.6 nM
same,"viability, T/C",[1],101%
same,"viability, T/C",[2],81.4%
same,"viability, T/C",[3],86.5%
same,"viability, T/C",[4],105%
same,"viability, T/C",[5],106%
same,"viability, T/C",[6],84.2%
same,"viability, T/C",[7],44.8%
same,"viability, T/C",[8],42.2%
same,"viability, T/C",[9],46.1%
same,"viability, T/C",[10],51.3%
same,"viability, T/C",[11],47.4%
same,"viability, T/C",[12],43.5%
same,"viability, T/C",[13],48.2%
same,"viability, T/C",[14],39.8%
same,"viability, T/C",[15],44.8%
same,"viability, T/C",[16],40.1%
same,"viability, T/C",[17],38.9%
same,"viability, T/C",[18],38.7%
same,"viability, T/C",[19],26.2%
same,"viability, T/C",[20],30.1%
same,"viability, T/C",[21],26.2%
same,"viability, T/C",[22],32.7%
same,"viability, T/C",[23],28.3%
same,"viability, T/C",[24],25%
same,"viability, T/C",[25],33.1%
same,"viability, T/C",[26],26.2%
same,"viability, T/C",[27],32.4%
same,"viability, T/C",[28],31.8%
same,"viability, T/C",[29],28.8%
same,"viability, T/C",[30],20.9%
same,"viability, T/C",[31],31.3%
same,"viability, T/C",[32],25.7%
same,"viability, T/C",[33],24.1%
same,"viability, T/C",[34],24.4%
same,"viability, T/C",[35],24.7%
same,"viability, T/C",[36],20.6%
